Our source for the EC50 values is patent US8524702B2, “Substituted benzoazepines as toll-like receptor modulators” (VentiRx Pharmaceuticals, Inc., priority 2009, dated 2013).

For orientation: EC50 means the concentration needed to bring the measured effect to its halfway point.

Holding throughout (type): cell-based
The target of assay [1] is T1, TLR8 (Homo sapiens, UniProt Q9NR97).
T1 sequence (Q9NR97 27-1041): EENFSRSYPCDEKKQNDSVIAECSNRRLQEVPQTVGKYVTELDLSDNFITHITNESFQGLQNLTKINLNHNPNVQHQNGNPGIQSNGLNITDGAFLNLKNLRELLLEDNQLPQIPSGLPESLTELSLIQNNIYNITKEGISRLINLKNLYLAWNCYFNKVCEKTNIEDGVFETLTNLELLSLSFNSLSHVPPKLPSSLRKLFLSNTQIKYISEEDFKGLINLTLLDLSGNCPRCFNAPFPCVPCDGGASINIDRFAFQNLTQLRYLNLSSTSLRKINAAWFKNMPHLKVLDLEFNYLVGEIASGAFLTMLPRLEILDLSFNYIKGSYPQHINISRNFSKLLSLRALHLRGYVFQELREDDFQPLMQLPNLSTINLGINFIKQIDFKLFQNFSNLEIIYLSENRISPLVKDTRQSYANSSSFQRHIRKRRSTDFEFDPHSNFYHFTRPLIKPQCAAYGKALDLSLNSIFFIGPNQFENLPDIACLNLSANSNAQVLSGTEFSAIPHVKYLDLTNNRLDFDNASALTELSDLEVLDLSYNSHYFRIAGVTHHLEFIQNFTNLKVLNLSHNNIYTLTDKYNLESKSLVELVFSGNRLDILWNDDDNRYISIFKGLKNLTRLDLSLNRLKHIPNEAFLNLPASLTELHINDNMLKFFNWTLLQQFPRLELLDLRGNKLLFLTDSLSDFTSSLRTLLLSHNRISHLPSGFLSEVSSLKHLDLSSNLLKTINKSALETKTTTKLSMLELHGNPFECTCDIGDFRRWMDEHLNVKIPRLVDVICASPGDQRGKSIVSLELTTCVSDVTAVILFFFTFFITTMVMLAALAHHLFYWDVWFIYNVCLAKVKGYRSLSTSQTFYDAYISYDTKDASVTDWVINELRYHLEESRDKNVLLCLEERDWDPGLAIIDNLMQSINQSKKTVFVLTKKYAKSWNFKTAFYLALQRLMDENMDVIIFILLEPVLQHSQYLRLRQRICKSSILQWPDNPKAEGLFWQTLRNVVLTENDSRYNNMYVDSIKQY
The experiment in a line: PBMC assay for TLR8 (TNFα in supernatants by ELISA). On the set-up: Peripheral blood mononuclear cells (PBMCs) from human blood were isolated; endogenous in cells; host or cells: human PBMCs. Particulars: human PBMCs incubated with compound overnight, MC50 = concentration at which 50% of the maximum induction is seen. The protocol: (§1) Peripheral blood mononuclear cells (PBMCs) from human blood were isolated using BD Vacutainer Cell Preparation Tubes with sodium citrate. Cells were incubated with compound overnight. TLR8 activity was assayed by measuring the amount of TNFα in supernatants by ELISA. TLR7 activity was assayed by measuring the amount of IFNα in supernatants by ELISA (R&D Systems). […] The results of this assay are shown below in Tables 2 and 3.
(§2) MC50 numbers are represented as factors of ten, for example, + indicates an MC50 value of ×10^4, or a value in the tens of thousands of nanomolar (nM range); ++ indicates an MC50 value of ×10^3, or a value in the thousands; +++ indicates an MC50 value of ×10^2, or a value in the hundreds; and ++++ indicates an MC50 value of ×10^1 or 10°, or a value in the tens or ones.
On the technique in general: ELISA stands for enzyme-linked immunosorbent assay.

The target of assay [2] is T1, TLR8. Kind of assay: TLR8 activity, MC50 values (procedure only by reference to Gorden et al. and Zhu et al.). Particulars: assay format not given. From the text: Activity of the compounds can be assessed according to procedures described in, e.g., Gorden et al., Journal of Immunology 177, pp. 8164-8170 (2006) and Zhu et al., Molecular Immunology, vol. 45 (11), pp. 3238-3242 (2008).
MC50 values for TLR8 activity are, for example, as shown below: […]

The next assay has as its target T2, TLR7 (Homo sapiens, UniProt Q9NYK1).
T2 sequence (Q9NYK1 27-1049): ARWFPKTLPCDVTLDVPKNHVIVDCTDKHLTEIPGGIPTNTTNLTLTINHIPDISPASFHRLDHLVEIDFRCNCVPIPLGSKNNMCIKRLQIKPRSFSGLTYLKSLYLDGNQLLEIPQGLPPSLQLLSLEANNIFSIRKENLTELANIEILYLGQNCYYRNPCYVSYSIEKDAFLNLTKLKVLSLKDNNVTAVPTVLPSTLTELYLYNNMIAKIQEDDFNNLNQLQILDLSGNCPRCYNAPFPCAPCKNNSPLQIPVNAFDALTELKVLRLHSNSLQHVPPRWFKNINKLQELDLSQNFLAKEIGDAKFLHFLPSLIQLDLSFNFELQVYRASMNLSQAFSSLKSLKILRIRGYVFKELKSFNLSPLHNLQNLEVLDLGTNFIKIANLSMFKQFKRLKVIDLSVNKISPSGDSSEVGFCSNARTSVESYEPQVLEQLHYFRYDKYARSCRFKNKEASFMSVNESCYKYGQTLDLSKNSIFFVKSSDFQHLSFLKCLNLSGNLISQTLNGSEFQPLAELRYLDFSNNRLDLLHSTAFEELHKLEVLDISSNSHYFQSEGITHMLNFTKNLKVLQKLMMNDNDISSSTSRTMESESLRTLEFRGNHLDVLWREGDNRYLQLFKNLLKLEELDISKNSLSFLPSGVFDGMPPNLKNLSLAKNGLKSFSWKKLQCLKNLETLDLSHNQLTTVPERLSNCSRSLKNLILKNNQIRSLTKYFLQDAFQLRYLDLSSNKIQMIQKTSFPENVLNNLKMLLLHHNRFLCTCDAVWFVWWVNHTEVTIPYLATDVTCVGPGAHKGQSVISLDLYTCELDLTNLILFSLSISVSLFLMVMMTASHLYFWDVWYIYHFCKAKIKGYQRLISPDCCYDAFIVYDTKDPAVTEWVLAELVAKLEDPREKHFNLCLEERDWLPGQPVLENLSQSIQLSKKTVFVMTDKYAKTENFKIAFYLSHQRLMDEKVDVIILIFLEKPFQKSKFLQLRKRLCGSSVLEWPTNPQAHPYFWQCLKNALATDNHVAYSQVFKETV
The experiment in a line: PBMC assay for TLR7 (IFNα in supernatants by ELISA). More on the design: Peripheral blood mononuclear cells (PBMCs) from human blood were isolated; endogenous in cells; host or cells: human PBMCs. Particulars: human PBMCs incubated with compound overnight, MC50 = concentration at which 50% of the maximum induction is seen. Here is the method:
as §1, §2

`CCOC(=O)C1=Cc2ccc(-c3ccncc3)cc2N=C(N)C1` [Compound 143, (1E,4E)-ethyl 2-amino-8-(pyridin-4-yl)-3H-benzo[b]azepine-4-carboxylate]: the results for the EC50 at TLR8 [1] and at TLR8 [2] were 1 to 100 nM and 45 nM, respectively.

As to `CCCN(CCCO)C(=O)C1=Cc2ccc(-c3ccc(C(=O)OCC)cc3)cc2N=C(N)C1` [Compound 190, Ethyl 4-((1E,4E)-2-amino-4-((3-hydroxypropyl)(propyl)carbamoyl)-3H-benzo[b]azepin-8-yl)benzoate], the values for the 50% effective concentration (EC50) at TLR8 [1], on TLR7 and at TLR8 [2] were 100 to 1000 nM, 10000 to 100000 nM and 196 nM, respectively.

Turning to `CCCN(C[C@@H](C)O)C(=O)C1=Cc2ccc(-c3ccc(C(=O)N4CCCC4)cc3)cc2N=C(N)C1` (single isomer, unassigned) [Compound 106], the results for the 50% effective concentration (EC50) at TLR8 [1], at TLR7 and on TLR8 [2] were 1 to 100 nM, 1000 to 10000 nM and 10 nM, respectively.

For the molecule `CCCN(CCC)C(=O)C1=Cc2ccc(-c3ccc(C(=O)N4CC[C@@H](O)C4)cc3)cc2N=C(N)C1` [Compound 127, (1E,4E)-2-amino-8-(4-((R)-3-hydroxypyrrolidine-1-carbonyl)phenyl)-N,N-dipropyl-3H-benzo[b]azepine-4-carboxamide], the EC50 at TLR8 [1] is 1 to 100 nM; at TLR7, 1000 to 10000 nM; at TLR8 [2], 4 nM.

On to `CCOC(=O)C1=Cc2ccc(-c3cccnc3)cc2N=C(N)C1` [Compound 142, (1E,4E)-ethyl 2-amino-8-(pyridin-3-yl)-3H-benzo[b]azepine-4-carboxylate], for which the EC50 on TLR8 [1] is 1 to 100 nM; at TLR7 it was 1000 to 10000 nM.

Regarding `CCCN(CCC)C(=O)C1=Cc2ccc(-c3cccnc3)cc2N=C(N)C1` [Compound 133, (1E,4E)-2-amino-N,N-dipropyl-8-(pyridin-3-yl)-3H-benzo[b]azepine-4-carboxamide], the results for the EC50 at TLR8 [1] and at TLR7 were 1 to 100 nM and 1000 to 10000 nM, respectively.

`CCCN(CC(C)(C)O)C(=O)C1=Cc2ccc(-c3ccc(C(=O)N4CCCC4)cc3)cc2N=C(N)C1` [Compound 117, (1E,4E)-2-amino-N-(2-hydroxy-2-methylpropyl)-N-propyl-8-(4-(pyrrolidine-1-carbonyl)phenyl)-3H-benzo[b]azepine-4-carboxamide]: the values for the concentration for a half-maximal effect (EC50) at TLR8 [1] and on TLR7 were 100 to 1000 nM and 10000 to 100000 nM, respectively.

Take `CCCN(CCCO)C(=O)C1=Cc2ccc(-c3ccc(C(=O)N4CC[C@H](O)C4)cc3)cc2N=C(N)C1` [Compound 182, (1E,4E)-2-amino-N-(3-hydroxypropyl)-8-(4-((S)-3-hydroxypyrrolidine-1-carbonyl)phenyl)-N-propyl-3H-benzo[b]azepine-4-carboxamide]: the half-maximal effective concentration (EC50) at TLR8 [1] lay within 1 to 100 nM; at TLR7, 1000 to 10000 nM.

On to `CCCN(CCC)C(=O)C1=Cc2ccc(-c3ccc(C(=O)OC)nc3)cc2N=C(N)C1` [Compound 212, Methyl 5-((1E,4E)-2-amino-4-(dipropylcarbamoyl)-3H-benzo[b]azepin-8-yl)picolinate], for which the concentration for a half-maximal effect (EC50) at TLR8 [1] is 100 to 1000 nM; on TLR7, 1000 to 10000 nM.

With `CCCN(CCCO)C(=O)C1=Cc2ccc(-c3ccc(/C=C/C(=O)OCC)cc3)cc2N=C(N)C1` [Compound 220, (E)-Ethyl 3-(4-((1E,4E)-2-amino-4-((3-hydroxypropyl)(propyl)carbamoyl)-3H-benzo[b]azepin-8-yl)phenyl)acrylate], the half-maximal effective concentration (EC50) fell in the range of 100 to 1000 nM on TLR8 [1] and 10000 to 100000 nM at TLR7.

As to `CCCN(CCC)C(=O)C1=Cc2ccc(-c3cccc(C#N)c3)cc2N=C(N)C1` [Compound 136, (1E,4E)-2-amino-8-(3-cyanophenyl)-N,N-dipropyl-3H-benzo[b]azepine-4-carboxamide], the EC50 at TLR8 [1] was in the range of 1 to 100 nM; at TLR7 it was 1000 to 10000 nM.

Take `CCCN(CCC)C(=O)C1=Cc2ccc(-c3ccc(C(=O)N4CC[C@H](O)C4)cc3)cc2N=C(N)C1` [Compound 128, (1E,4E)-2-amino-8-(4-((S)-3-hydroxypyrrolidine-1-carbonyl)phenyl)-N,N-dipropyl-3H-benzo[b]azepine-4-carboxamide]: the half-maximal effective concentration (EC50) was 1 to 100 nM at TLR8 [1] and 1000 to 10000 nM on TLR7.

For `CCOC(=O)C1=Cc2ccc(-c3cccc(C(=O)N(C)C)c3)cc2N=C(N)C1` [Compound 147, (1E,4E)-ethyl 2-amino-8-(3-(dimethylcarbamoyl)phenyl)-3H-benzo[b]azepine-4-carboxylate], the figures for the EC50 at TLR8 [1] and on TLR7 were 100 to 1000 nM and 1000 to 10000 nM, respectively.

For the molecule `CCOC(=O)C1=Cc2ccc(-c3ccc(C(=O)N(C)C)cc3)cc2N=C(N)C1` [Compound 154, (1E,4E)-ethyl 2-amino-8-(4-(dimethylcarbamoyl)phenyl)-3H-benzo[b]azepine-4-carboxylate], the EC50 at TLR8 [1] was 100 to 1000 nM; at TLR8 [2] it was 116 nM.

For `CCCN(CCCO)C(=O)C1=Cc2ccc(-c3ccc(C(=O)OCC)c(F)c3)cc2N=C(N)C1` [Compound 211, Ethyl 4-((1E,4E)-2-amino-4-((3-hydroxypropyl)(propyl)carbamoyl)-3H-benzo[b]azepin-8-yl)-2-fluorobenzoate], the concentration for a half-maximal effect (EC50) on TLR8 [1] was 100 to 1000 nM; on TLR7, 1000 to 10000 nM.

`CCOC(=O)C1=Cc2ccc(-c3cncnc3)cc2N=C(N)C1` [Compound 144, (1E,4E)-ethyl 2-amino-8-(pyrimidin-5-yl)-3H-benzo[b]azepine-4-carboxylate]: the EC50 on TLR8 [1] is 1 to 100 nM; on TLR7 it was 1000 to 10000 nM.

On to `CCCN(CCC)C(=O)C1=Cc2ccc(-c3cccc(C(=O)N(C)C)c3)cc2N=C(N)C1` [Compound 138, (1E,4E)-2-amino-8-(3-(dimethylcarbamoyl)phenyl)-N,N-dipropyl-3H-benzo[b]azepine-4-carboxamide], for which the half-maximal effective concentration (EC50) on TLR8 [1] fell in the range of 1 to 100 nM; on TLR7, 1000 to 10000 nM.
